Measurements published in USRE50528E1, “Compounds and compositions for modulating EGFR mutant kinase activities” (Yuhan Corporation, priority 2014, dated 2025).
Read-outs that look alike come from different tables or passages of the source.

Legend:
EGFR mutant T790M = target: T1, EGFR mutant T790M (Homo sapiens, UniProt P00533, T790M); assay: Kinase inhibition assay, EGFR mutant T790M; details: biochemical potency;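 also: truncated human EGFR mutant enzyme preincubated two hours with compound, then ATP plus ULight-PolyGT peptide for one hour, Europium-labeled antibody LANCE detection, IC50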
T1 construct: truncated human JAK3, EGFR mutants such as del E746-A750; purchased Carna Biosciences

[1] = target: T2, EGFR mutant Del19 (E746-A750) (Homo sapiens, UniProt P00533, DEL746-750); assay: Kinase inhibition assay, EGFR del E746-A750; format: biochemical; details: read-out: EGFR mutants Del19 (E746-A750);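 also: truncated human EGFR mutant kinase, two-hour preincubation with compound, then one-hour reaction with ATP and ULight-PolyGT peptide, LANCE Europium-antibody phosphorylation readout, IC50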
T2 construct: truncated human JAK3, EGFR mutants such as del E746-A750; purchased Carna Biosciences

EGFR mutant L858R = target: T3, EGFR mutant L858R (Homo sapiens, UniProt P00533, L858R); assay: Kinase inhibition assay, EGFR L858R; format: biochemical; details: read-out: EGFR mutants L858R;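 also: truncated human EGFR L858R kinase with compound preincubation, ULight-PolyGT peptide phosphorylation read by Europium-antibody Lance detection, IC50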
T3 construct: truncated human JAK3, EGFR mutants such as del E746-A750; purchased Carna Biosciences

EGFR mutant L858R/T790M = target: T4, EGFR mutant L858R/T790M (Homo sapiens, UniProt P00533, L858R/T790M); assay: Kinase inhibition assay, EGFR L858R/T790M; format: biochemical; details: read-out: EGFR mutants L858R/T790M;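 also: truncated human enzyme preincubated two hours with compound, then one hour with one millimolar ATP and ULight-PolyGT peptide, Europium-labeled antibody detection, IC50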
T4 construct: truncated human JAK3, EGFR mutants such as del E746-A750; purchased Carna Biosciences

EGFR mutant Del19/T790M = target: T5, EGFR mutant Del19/T790M (Homo sapiens, UniProt P00533, DEL746-750/T790M); assay: Kinase inhibition assay, EGFR del E746-A750/T790M; format: biochemical; details: read-out: EGFR mutants Del19/T790M
T5 construct: truncated human JAK3, EGFR mutants such as del E746-A750; purchased Carna Biosciences

SYK = target: T6, SYK (Homo sapiens, UniProt P43405); assay: Kinase inhibition assay, SYK; format: biochemical; details: biochemical potency;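 also: purified full-length human SYK pre-incubated 30 min with compound, then ULight-TK peptide phosphorylation for 1 h, detected with Europium-labeled antibody in Lance buffer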
T6 construct: Purified human, full-length SYK, KDR; purchased Carna Biosciences

H2073 (EGFR wildtype) = assay: Cell viability assay, H2073; format: cell-based; details: cellular potency, 72-hour incubation, ATPLite;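 also: NSCLC cell line whose survival relies on wildtype EGFR, treated with serially diluted compound, cytotoxic effect judged from remaining cell viability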
[2] = system: PC9 (EGFR del E746-A750 mutant); assay: Cell viability assay, PC9; format: cell-based; details: for Selectivity over wildtype, Wildtype vs mutant H2073/PC9 (fold): cellular potency ratio; for IC50: cellular potency, 72-hour incubation, ATPLite, read-out: EGFR Mutants PC9;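 as to all read-outs here: NSCLC PC9 cells, whose viability relies on EGFR del E746-A750, exposed to serially diluted compound for 72 h at 37 °C, ATPLite read-out, IC50, H2073 as EGFR wildtype line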
[3] = system: H1975 (EGFR L858R/T790M mutant); assay: Cell viability assay, H1975; format: cell-based; details: for Selectivity over wildtype, Wildtype vs mutant H2073/H1975 (fold): cellular potency ratio; for IC50: cellular potency, 72-hour incubation, ATPLite, read-out: EGFR Mutants H1975;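 as to all read-outs here: NSCLC cells whose survival relies on EGFR L858R/T790M, exposed 72 h to serially diluted compound, ATP-based viability readout, with the H2073 line (wildtype EGFR dependent) as wildtype comparator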

4-(3-((dimethylamino)methyl)-4-methyl-1H-pyrrol-1-yl)-N-(3,5-dimethylphenyl)pyrimidin-2-amine [Compound 146, reference compound]
IC50 (EGFR mutant T790M): > 1000 nM
IC50 ([1]; biochemical potency, 1 mM ATP): > 1000 nM
IC50 (EGFR mutant L858R; biochemical potency, 1 mM ATP): > 1000 nM
IC50 (EGFR mutant L858R/T790M; biochemical potency, 1 mM ATP): 201 to 1000 nM
IC50 (EGFR mutant Del19/T790M; biochemical potency, 1 mM ATP): 201 to 1000 nM
IC50 (SYK): 20 to 200 nM
IC50 (H2073 (EGFR wildtype)): > 1000 nM
Selectivity over wildtype, Wildtype vs mutant H2073/PC9 (fold) [2]: <20 fold
IC50 [2]: > 1000 nM
Selectivity over wildtype, Wildtype vs mutant H2073/H1975 (fold) [3]: <20 fold
IC50 [3]: > 1000 nM

C=CC(=O)Nc1cc(Nc2nccc(-n3cc(CN(C)C)c(-c4ccccc4)n3)n2)c(OC)cc1N1CCC1 [Compound 84, N-(2-(azetidin-1-yl)-5-(4-(4-((dimethylamino)methyl)-3-phenyl-1H-pyrazol-1-yl)pyrimidin-2-ylamino)-4-methoxyphenyl)acrylamide]
IC50 (EGFR mutant T790M): < 20 nM
IC50 [1]: < 20 nM
IC50 (EGFR mutant L858R): < 20 nM
IC50 (EGFR mutant L858R/T790M): < 20 nM
IC50 (EGFR mutant Del19/T790M): < 20 nM
IC50 (SYK): > 1000 nM
IC50 (H2073 (EGFR wildtype); NCI-H2073): 20 to 200 nM
Selectivity over wildtype, Wildtype vs mutant H2073/PC9 (fold) [2]: <20 fold
IC50 [2]: < 20 nM
IC50 ([3]; Homo sapiens, NCI-H1975): < 20 nM
Selectivity over wildtype, Wildtype vs mutant H2073/H1975 (fold) [3]: <20 fold

C=CC(=O)Nc1cc(Nc2nccc(-n3cc(CN(C)C)c(C(C)(C)C)n3)n2)c(OC)cc1N1CCOCC1 [Compound 86, N-(5-(4-(3-tert-butyl-4-((dimethylamino)methyl)-1H-pyrazol-1-yl)pyrimidin-2-ylamino)-4-methoxy-2-morpholinophenyl)acrylamide]
IC50 (EGFR mutant T790M): 20 to 200 nM
IC50 [1]: < 20 nM
IC50 (EGFR mutant L858R): < 20 nM
IC50 (EGFR mutant L858R/T790M): < 20 nM
IC50 (EGFR mutant Del19/T790M): < 20 nM
IC50 (SYK): > 1000 nM
IC50 (H2073 (EGFR wildtype); NCI-H2073): 201 to 1000 nM
Selectivity over wildtype, Wildtype vs mutant H2073/PC9 (fold) [2]: 20-200 fold
IC50 [2]: < 20 nM
IC50 ([3]; Homo sapiens, NCI-H1975): < 20 nM
Selectivity over wildtype, Wildtype vs mutant H2073/H1975 (fold) [3]: 20-200 fold

C=CC(=O)Nc1cc(Nc2nccc(-n3cc(CN(C)CC)c(-c4ccccc4)n3)n2)c(OC)cc1N1CCOCC1 [Compound 92, N-(5-(4-(4-((ethyl(methyl)amino)methyl)-3-phenyl-1H-pyrazol-1-yl)pyrimidin-2-ylamino)-4-methoxy-2-morpholinophenyl)acrylamide]
IC50 (EGFR mutant T790M): < 20 nM
IC50 [1]: < 20 nM
IC50 (EGFR mutant L858R): < 20 nM
IC50 (EGFR mutant L858R/T790M): < 20 nM
IC50 (EGFR mutant Del19/T790M): < 20 nM
IC50 (SYK): > 1000 nM
IC50 (H2073 (EGFR wildtype); NCI-H2073): > 1000 nM
Selectivity over wildtype, Wildtype vs mutant H2073/PC9 (fold) [2]: >200 fold
IC50 [2]: < 20 nM
IC50 ([3]; Homo sapiens, NCI-H1975): < 20 nM
Selectivity over wildtype, Wildtype vs mutant H2073/H1975 (fold) [3]: >200 fold

C=CC(=O)Nc1cc(Nc2nccc(-n3cc(CN(C)C)c(C(C)C)n3)n2)c(OC)cc1N1CCOCC1 [Compound 93, N-(5-(4-(4-((dimethylamino)methyl)-3-isopropyl-1H-pyrazol-1-yl)pyrimidin-2-ylamino)-4-methoxy-2-morpholinophenyl)acrylamide]
IC50 (EGFR mutant T790M): < 20 nM
IC50 [1]: < 20 nM
IC50 (EGFR mutant L858R): < 20 nM
IC50 (EGFR mutant L858R/T790M): < 20 nM
IC50 (EGFR mutant Del19/T790M): < 20 nM
IC50 (SYK): > 1000 nM
IC50 (H2073 (EGFR wildtype); NCI-H2073): 201 to 1000 nM
Selectivity over wildtype, Wildtype vs mutant H2073/PC9 (fold) [2]: 20-200 fold
IC50 [2]: < 20 nM
IC50 ([3]; Homo sapiens, NCI-H1975): < 20 nM
Selectivity over wildtype, Wildtype vs mutant H2073/H1975 (fold) [3]: 20-200 fold

C=CC(=O)Nc1cc(Nc2nccc(-n3cc(CN(C)C)c(C(C)(C)C)n3)n2)c(OC)cc1N(C)CCOC [Compound 100, N-(5-(4-(3-tert-butyl-4-((dimethylamino)methyl)-1H-pyrazol-1-yl)pyrimidin-2-ylamino)-4-methoxy-2-((2-methoxyethyl)(methyl)amino)phenyl)acrylamide]
IC50 (EGFR mutant T790M): 20 to 200 nM
IC50 [1]: < 20 nM
IC50 (EGFR mutant L858R): < 20 nM
IC50 (EGFR mutant L858R/T790M): < 20 nM
IC50 (EGFR mutant Del19/T790M): < 20 nM
IC50 (SYK): > 1000 nM
IC50 (H2073 (EGFR wildtype); NCI-H2073): > 1000 nM
Selectivity over wildtype, Wildtype vs mutant H2073/PC9 (fold) [2]: 101-200 fold
IC50 [2]: 20 to 200 nM
IC50 ([3]; Homo sapiens, NCI-H1975): 20 to 200 nM
Selectivity over wildtype, Wildtype vs mutant H2073/H1975 (fold) [3]: 101-200 fold

C=CC(=O)Nc1cc(Nc2nccc(-n3cc(CN(C)C)c(C4CC4)n3)n2)c(OC)cc1N(C)CCOC [Compound 106, N-(5-(4-(3-cyclopropyl-4-((dimethylamino)methyl)-1H-pyrazol-1-yl)pyrimidin-2-ylamino)-4-methoxy-2-((2-methoxyethyl)(methyl)amino)phenyl)acrylamide]
IC50 (EGFR mutant T790M): < 20 nM
IC50 [1]: < 20 nM
IC50 (EGFR mutant L858R): < 20 nM
IC50 (EGFR mutant L858R/T790M): < 20 nM
IC50 (EGFR mutant Del19/T790M): < 20 nM
IC50 (SYK): 20 to 200 nM
IC50 (H2073 (EGFR wildtype); NCI-H2073): > 1000 nM
Selectivity over wildtype, Wildtype vs mutant H2073/PC9 (fold) [2]: 101-200 fold
IC50 [2]: 20 to 200 nM
IC50 ([3]; Homo sapiens, NCI-H1975): 20 to 200 nM
Selectivity over wildtype, Wildtype vs mutant H2073/H1975 (fold) [3]: 101-200 fold

C=CC(=O)Nc1cc(Nc2nccc(-n3cc(CN4CCC4)c(-c4cccs4)n3)n2)c(OC)cc1N1CCOCC1 [Compound 118, N-(5-(4-(4-(azetidin-1-ylmethyl)-3-(thiophen-2-yl)-1H-pyrazol-1-yl)pyrimidin-2-ylamino)-4-methoxy-2-morpholinophenyl)acrylamide]
IC50 (EGFR mutant T790M): < 20 nM
IC50 [1]: < 20 nM
IC50 (EGFR mutant L858R): < 20 nM
IC50 (EGFR mutant L858R/T790M): < 20 nM
IC50 (EGFR mutant Del19/T790M): < 20 nM
IC50 (SYK): 20 to 200 nM
IC50 (H2073 (EGFR wildtype); NCI-H2073): 201 to 1000 nM
Selectivity over wildtype, Wildtype vs mutant H2073/PC9 (fold) [2]: 20-200 fold
IC50 [2]: < 20 nM
IC50 ([3]; Homo sapiens, NCI-H1975): < 20 nM
Selectivity over wildtype, Wildtype vs mutant H2073/H1975 (fold) [3]: 20-200 fold

Cc1cc(C)cc(Nc2nccc(-n3cc(CN4CC(O)C4)c(C)n3)n2)c1 [Compound 147, 1-((1-(2-(3,5-dimethylphenylamino)pyrimidin-4-yl)-3-methyl-1H-pyrazol-4-yl)methyl)azetidin-3-ol, reference compound]
IC50 (EGFR mutant T790M): > 1000 nM
IC50 [1]: > 1000 nM
IC50 (EGFR mutant L858R): > 1000 nM
IC50 (EGFR mutant L858R/T790M): 201 to 1000 nM
IC50 (EGFR mutant Del19/T790M): > 1000 nM
IC50 (SYK): 20 to 200 nM
IC50 (H2073 (EGFR wildtype); NCI-H2073): > 1000 nM
Selectivity over wildtype, Wildtype vs mutant H2073/PC9 (fold) [2]: <20 fold
IC50 [2]: > 1000 nM
IC50 ([3]; Homo sapiens, NCI-H1975): > 1000 nM
Selectivity over wildtype, Wildtype vs mutant H2073/H1975 (fold) [3]: <20 fold

CC/C=C/C(=O)Nc1cc(Nc2nccc(-n3cc(CN(C)C)c(-c4ccccc4)n3)n2)c(OC)cc1N1CCOCC1 [Compound 155, (E)-N-(5-(4-(4-((dimethylamino)methyl)-3-phenyl-1H-pyrazol-1-yl)pyrimidin-2-ylamino)-4-methoxy-2-morpholinophenyl)pent-2-enamide, reference compound]
IC50 (H2073 (EGFR wildtype); NCI-H2073): > 1000 nM
Selectivity over wildtype, Wildtype vs mutant H2073/PC9 (fold) [2]: <20 fold
IC50 [2]: 201 to 1000 nM
IC50 ([3]; Homo sapiens, NCI-H1975): 201 to 1000 nM
Selectivity over wildtype, Wildtype vs mutant H2073/H1975 (fold) [3]: <20 fold

CC/C=C\CC(=O)Nc1cc(Nc2nccc(-n3cc(CN(C)C)c(-c4ccccc4)n3)n2)c(OC)cc1N1CCOCC1 [Compound 156, (Z)—N-(5-(4-(4-((dimethylamino)methyl)-3-phenyl-1H-pyrazol-1-yl)pyrimidin-2-ylamino)-4-methoxy-2-morpholinophenyl)hex-3-enamide, reference compound]
IC50 [1]: > 1000 nM
IC50 (EGFR mutant L858R): > 1000 nM
IC50 (EGFR mutant L858R/T790M): 201 to 1000 nM
IC50 (EGFR mutant Del19/T790M): 20 to 200 nM
IC50 (SYK): > 1000 nM
IC50 (H2073 (EGFR wildtype); NCI-H2073): > 1000 nM
Selectivity over wildtype, Wildtype vs mutant H2073/PC9 (fold) [2]: <20 fold
IC50 [2]: > 1000 nM
IC50 ([3]; Homo sapiens, NCI-H1975): > 1000 nM
Selectivity over wildtype, Wildtype vs mutant H2073/H1975 (fold) [3]: <20 fold
